US20250154138A1, “Small Molecule IL-17A Modulators” (BeiGene, Ltd., priority 2022, published 2025)

Key:
[1] = target: human IL-17A / human IL-17RA (Homo sapiens (Human), UniProt Q16552); assay: Human IL-17A biochemical assay (HTRF, blocking of IL-17A binding to IL-17RA); settings: 0.4 nM IL-17A, 0.3 nM IL-17RA, max compound concentration 10 uM
Summary of the method: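 Recombinant human IL-17A (0.4 nM) was pre-incubated with compound (top 10 uM, 2.7-fold, 10 points) for 3 h at room temperature in 20 mM HEPES pH 7.5, 50 mM NaCl, 0.1% BSA, 0.2 mM DTT, 0.005% Tween 20. IL-17RA (0.3 nM) was then added for 1 h, followed by anti-6His Tb and anti-human IgG-XL665 detection for 1 h; IC50 from four-parameter fit.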

[2] = tested on: IL-17-induced GROα secretion from HT-29 cells; assay: GROα release assay in human colorectal adenocarcinoma epithelial cell (HT-29, ELISA); assay type: cell-based; settings: Homo sapiens, HT-29, 48 h, 10 ng/mL IL-17A, highest concentration 10 μM, read-out: Cellular assay HT29 cell/CXCL1 IC50
Experimental: The purpose of the assay is to test the ability of a compound to neutralize IL17A proteins. IL17 can stimulate human epithelial cells to secrete GROα. The ability of one compound of the invention to neutralize IL-17-induced GROα secretion from the human colorectal adenocarcinoma epithelia cell line HT-29 is tested in this assay.
HT-29 cells (human colorectal adenocarcinoma epithelia cell, ATCC) were stimulated with IL-17A (Novoprotein, #C774) in final concentration of 10 ng/mL. The resultant GROα response was measured using an ELISA kit from Invitrogen (#88-52122). HT-29 cells were cultured in complete medium (McCoy's 5A medium+10% FBS) and maintained in a tissue culture flask using standard techniques. On day 1, detached the cell by using TrypLE (Gibco, #12605036) and used the complete medium to neutralize. The cells were centrifuged at 11,00 rmp for 4 minutes. Re-suspended the cell pellet in complete medium and seeded 50,000 HT-29 cells into the 96-well assay plate (Corning, 3599) at 135 μL complete medium per well. The cells were incubated for overnight, at 37° C./5% CO2 to adherent the plate. On day 2, prepared a 4-fold serial dilution of the tested compound in DMSO. The highest concentration of the compound was 10 μM. Transferred 2 μL of the serial diluted compound from the serial dilution plate into the reagent plate which was contained 198 μL complete medium with 100 ng/mL IL-17A per well. The compounds were incubated with the IL-17A for 15 minutes. 15 μL mixtures from reagent plate were transferred into the cell assay plate. Incubated the plate at 37° C./5% CO2 for 48 hours. After the incubation, on day 4, GROα level were measured with GROα ELISA as the manufacturer's instructions. 50 μL supernatant was collected form the assay plate to ELISA plate. ELISA plate was read at 450 nm on a microplate reader and compared to a standard calibration curve.
Data were processed using GraphPad Prism. GROα concentration was calculated from the standard curve. IC50 was determined using the equation log concentration (inhibitor) against response and fitted to four parameters.

Sequence of human IL-17A / human IL-17RA (Q16552 24-155): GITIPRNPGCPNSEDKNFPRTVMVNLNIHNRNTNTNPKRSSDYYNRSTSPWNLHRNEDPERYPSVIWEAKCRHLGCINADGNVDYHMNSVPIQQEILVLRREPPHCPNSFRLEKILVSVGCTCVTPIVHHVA

Compound	IC50 [1] [nM]	IC50 [2] [nM]
CNC(=O)C1(N2C[C@@H](C(C)C)NC2=O)Cc2ccc(NC(=O)C(NC(=O)c3ccnn3C)C3CCc4ccccc43)cc2C1 (stereo partly drawn) [Example 97, N-(1-(2,3-dihydro-1H-inden-1-yl)-2-((2-((R)-4-isopropyl-2-oxoimidazolidin-1-yl)-2-(methylcarbamoyl)-2,3-dihydro-1H-inden-5-yl)amino)-2-oxoethyl)-1-methyl-1H-pyrazole-5-carboxamide]	535	1860
CC1CN(Cc2cc3cc(NC(=O)[C@@H](NC(=O)c4ccnn4C)C4CCCCC4)ccc3o2)C(=O)N1 (stereo partly drawn) [Example 11, N-((1S)-1-cyclohexyl-2-((2-((4-methyl-2-oxoimidazolidin-1-yl)methyl)benzofuran-5-yl)amino)-2-oxoethyl)-1-methyl-1H-pyrazole-5-carboxamide]	1700	6520
CNC(=O)C1(N2CC(C)(C)NC2=O)Cc2ccc(NC(=O)[C@@H](NC(=O)c3ccnn3C)C3CCCCC3)cc2C1 (stereo partly drawn) [Example 20, N-((1S)-1-cyclohexyl-2-((2-(4,4-dimethyl-2-oxoimidazolidin-1-yl)-2-(methylcarbamoyl)-2,3-dihydro-1H-inden-5-yl)amino)-2-oxoethyl)-1-methyl-1H-pyrazole-5-carboxamide]	980	476
CCCC1CN(C2(C(=O)NC)Cc3ccc(NC(=O)[C@@H](NC(=O)c4ccnn4C)C4CCCCC4)cc3C2)C(=O)N1 (stereo partly drawn) [Example 26, N-((1S)-1-cyclohexyl-2-((2-(methylcarbamoyl)-2-(2-oxo-4-propylimidazolidin-1-yl)-2,3-dihydro-1H-inden-5-yl)amino)-2-oxoethyl)-1-methyl-1H-pyrazole-5-carboxamide]	360	1080
CC1CN(C2(CO)Cc3ccc(NC(=O)[C@@H](NC(=O)c4ccnn4C)C4CCCCC4)cc3C2)C(=O)N1 (stereo partly drawn) [Example 22, N-((1S)-1-cyclohexyl-2-((2-(hydroxymethyl)-2-(4-methyl-2-oxoimidazolidin-1-yl)-2,3-dihydro-1H-inden-5-yl)amino)-2-oxoethyl)-1-methyl-1H-pyrazole-5-carboxamide]	950	7120
Cc1ccc(F)cc1NC(=O)C1(N2CC3(CC3)CNC2=O)Cc2ccc(NC(=O)[C@@H](NC(=O)c3nonc3C)C3CCC(F)(F)CC3)cc2C1 (stereo partly drawn) [Example 219, N-((1S)-1-(4,4-difluorocyclohexyl)-2-((2-((5-fluoro-2-methylphenyl)carbamoyl)-2-(6-oxo-5,7-diazaspiro[2.5]octan-5-yl)-2,3-dihydro-1H-inden-5-yl)amino)-2-oxoethyl)-4-methyl-1,2,5-oxadiazole-3-carboxamide]	107	297
Cc1nonc1C(=O)N[C@H](C(=O)Nc1ccc2c(c1)CC(C(=O)Nc1cncs1)(N1C[C@@H](C(C)C)NC1=O)C2)C(C1CC1)C1CC1 (stereo partly drawn) [Example 285, N-((2S)-1,1-dicyclopropyl-3-((2-((R)-4-isopropyl-2-oxoimidazolidin-1-yl)-2-(thiazol-5-ylcarbamoyl)-2,3-dihydro-1H-inden-5-yl)amino)-3-oxopropan-2-yl)-4-methyl-1,2,5-oxadiazole-3-carboxamide]	71.4	90.2
Cc1nonc1C(=O)N[C@H](C(=O)Nc1ccc2c(c1)OC(CN1C[C@@H](C(F)(F)F)NC1=O)C2)C(C1CC1)C1CC1 (stereo partly drawn) [Example 255, N-((2S)-1,1-dicyclopropyl-3-oxo-3-((2-(((S)-2-oxo-4-(trifluoromethyl)imidazolidin-1-yl)methyl)-2,3-dihydrobenzofuran-6-yl)amino)propan-2-yl)-4-methyl-1,2,5-oxadiazole-3-carboxamide]	165	666
Cn1nccc1C(=O)N[C@H](C(=O)Nc1ccc2c(c1)CC(C(=O)O)(N1CC3(CC3)CNC1=O)C2)C1CCCCC1 (stereo partly drawn) [Example 189, 5-((S)-2-cyclohexyl-2-(1-methyl-1H-pyrazole-5-carboxamido)acetamido)-2-(6-oxo-5,7-diazaspiro[2.5]octan-5-yl)-2,3-dihydro-1H-indene-2-carboxylic acid]	15.3	124
CNC(=O)C1(N2CC3(CCC3)CNC2=O)Cc2ccc(NC(=O)[C@@H](NC(=O)c3ccnn3C)C(C3CC3)C3CC3)cc2C1 (stereo partly drawn) [Example 120, N-((2S)-1,1-dicyclopropyl-3-((2-(methylcarbamoyl)-2-(7-oxo-6,8-diazaspiro[3.5]nonan-6-yl)-2,3-dihydro-1H-inden-5-yl)amino)-3-oxopropan-2-yl)-1-methyl-1H-pyrazole-5-carboxamide]	19	72.4
COc1ccc(CNC(=O)C2(N3C[C@@H](C(C)C)NC3=O)Cc3ccc(NC(=O)[C@@H](NC(=O)c4ccnn4C)C4CCCCC4)cc3C2)cc1 (stereo partly drawn) [Example 150, N-((1S)-1-cyclohexyl-2-((2-((R)-4-isopropyl-2-oxoimidazolidin-1-yl)-2-((4-methoxybenzyl)carbamoyl)-2,3-dihydro-1H-inden-5-yl)amino)-2-oxoethyl)-1-methyl-1H-pyrazole-5-carboxamide]	20	46.5
Cc1nonc1C(=O)N[C@H](C(=O)Nc1ccc2c(c1)CC(C(=O)Nc1cccc(Cl)c1)(N1CC3(CC3)CNC1=O)C2)C1CCC(F)(F)CC1 (stereo partly drawn) [Example 220, N-((1S)-2-((2-((3-chlorophenyl)carbamoyl)-2-(6-oxo-5,7-diazaspiro[2.5]octan-5-yl)-2,3-dihydro-1H-inden-5-yl)amino)-1-(4,4-difluorocyclohexyl)-2-oxoethyl)-4-methyl-1,2,5-oxadiazole-3-carboxamide]	169	80.6
CCC1CCC(C(NC(=O)c2ccnn2C)C(=O)Nc2ccc3c(c2)CC(C(=O)NC)(N2CC4(CC4)CNC2=O)C3)CC1 (centres unmarked) [Example 139, N-(1-(4-ethylcyclohexyl)-2-((2-(methylcarbamoyl)-2-(6-oxo-5,7-diazaspiro[2.5]octan-5-yl)-2,3-dihydro-1H-inden-5-yl)amino)-2-oxoethyl)-1-methyl-1H-pyrazole-5-carboxamide]	10	21.9
CNC(=O)C1(N2C[C@@H](C(C)C)NS2(=O)=O)Cc2ccc(NC(=O)[C@@H](NC(=O)c3ccnn3C)C3CCCCC3)cc2C1 (stereo partly drawn) [Example 55, N-((1S)-1-cyclohexyl-2-((2-((R)-4-isopropyl-1,1-dioxido-1,2,5-thiadiazolidin-2-yl)-2-(methylcarbamoyl)-2,3-dihydro-1H-inden-5-yl)amino)-2-oxoethyl)-1-methyl-1H-pyrazole-5-carboxamide]	1050	1820
COCC1(N2CC3(CC3)CNC2=O)Cc2ccc(NC(=O)[C@@H](NC(=O)c3ccnn3C)C3CCCCC3)cc2C1 (stereo partly drawn) [Example 156, N-((1S)-1-cyclohexyl-2-((2-(methoxymethyl)-2-(6-oxo-5,7-diazaspiro[2.5]octan-5-yl)-2,3-dihydro-1H-inden-5-yl)amino)-2-oxoethyl)-1-methyl-1H-pyrazole-5-carboxamide]	68.3	305
Cc1nonc1C(=O)N[C@H](C(=O)Nc1ccc2c(c1)CC(C(=O)NC(C1CC1)C1CC1)(N1C[C@@H](C(C)C)NC1=O)C2)C(C1CC1)C1CC1 (stereo partly drawn) [Example 281, N-((2S)-1,1-dicyclopropyl-3-((2-((dicyclopropylmethyl)carbamoyl)-2-((R)-4-isopropyl-2-oxoimidazolidin-1-yl)-2,3-dihydro-1H-inden-5-yl)amino)-3-oxopropan-2-yl)-4-methyl-1,2,5-oxadiazole-3-carboxamide]	16.5	67.4
